Where two headings read alike, the source gives them in different places.
System: Hyperlipidemic Hamster
Assay: In Vivo Assay of Hypolipidemic Agents Using the Hyperlipidemic Hamster
Conditions: 0.5% cholesterol diet 7 days, oral gavage once daily in corn oil, percent change versus control, negative = lowering; for change in vivo at 50 mg/kg / change in vivo at 10 mg/kg / change in vivo at 5 mg/kg / change in vivo at 8 mg/kg / change in vivo at 7 mg/kg / change in vivo at 3 mg/kg / change in vivo at 1 mg/kg: Mesocricetus auratus, 168 h
Experimental: The in vivo activity of the compounds of formula I can be determined by the following procedure: […]
In Vivo Assay of Hypoligidemic Hypolipidemic Agents Using the Hyperlipidemic Hamster
Hamsters are separated into groups of six and given a controlled cholesterol diet (Purina Chow #5001 containing 0.5% cholesterol) for seven days. Diet consumption is monitored to determine dietary cholesterol exposure in the face of test compounds. The animals are dosed with the test compound once daily beginning with the initiation of diet. Dosing is by oral gavage of 0.2 mL of corn oil alone (control group) or solution (or suspension) of test compound in corn oil. All animals moribund or in poor physical condition are euthanized. After seven days, the animals are anesthetized by intramuscular (IM) injection of ketamine and sacrificed by decapitation. Blood is collected into vacutainer tubes containing EDTA for plasma lipid analysis and the liver excised for tissue lipid analysis. Lipid analysis is conducted as per published procedures (Schnitzer-Polokoff, R., et al. Comp. Biochem. Physiol., 99A, 4 (1991), p. 665-670) and data is reported as percent reduction of lipid versus control.
Using the test procedures described above, the following in vivo data were obtained for the exemplified compounds. Data is reported as percent change (i.e., percent reduction in cholesterol esters) versus control, therefore, negative numbers indicate a positive lipid-lowering effect.

[1] = liver cholesterol esters, read-out: % Reduction Cholest. Esters
[2] = po, read-out: % Reduction Serum Cholest.
[3] = liver cholesterol esters, dose 10 mg/kg, read-out: % Reduction Cholest. Esters
[4] = po, dose 10 mg/kg, read-out: % Reduction Serum Cholest.
[5] = liver cholesterol esters, dose 10 mg/kg
[6] = liver cholesterol esters, dose 1 mg/kg
[7] = liver cholesterol esters, dose 1 mg/kg, read-out: % Reduction Cholest. Esters
[8] = po, dose 1 mg/kg, read-out: % Reduction Serum Cholest.

SMILES: COc1ccc([C@H]2C(C[C@@H](O)c3ccccc3)C(=O)N2c2ccccc2)cc1 (stereo partly shown) [Example 1A]
- change in vivo at 50 mg/kg [1]: 0%
- change in vivo at 50 mg/kg [2]: -2.3%

SMILES: COc1ccc([C@@H]2C(C[C@@H](O)c3ccccc3)C(=O)N2c2ccccc2)cc1 (stereo partly shown) [Example 1B]
- change in vivo at 50 mg/kg [1]: -39%
- change in vivo at 50 mg/kg [2]: -15%

SMILES: COc1ccc([C@H]2C(C[C@@H](OC(C)=O)c3ccccc3)C(=O)N2c2ccccc2)cc1 (stereo partly shown) [Example 2]
- change in vivo at 50 mg/kg [1]: 0%
- change in vivo at 50 mg/kg [2]: 0%

SMILES: COc1ccc([C@@H]2C([C@@H](O)CCc3ccccc3)C(=O)N2c2ccccc2)cc1 (stereo partly shown) [Example 3A]
- change in vivo at 50 mg/kg [1]: -69%
- change in vivo at 50 mg/kg [2]: -31%

SMILES: COc1ccc([C@@H]2[C@H](C(O)CCc3ccccc3)C(=O)N2c2ccccc2)cc1 (stereo partly shown) [Example 3C]
- change in vivo at 50 mg/kg [1]: -92%
- change in vivo at 50 mg/kg [2]: -60%

SMILES: COc1ccc([C@@H]2[C@H]([C@H](O)CCc3ccccc3)C(=O)N2c2ccccc2)cc1 [Example 3H]
- change in vivo at 10 mg/kg [3]: -86%
- change in vivo at 10 mg/kg [4]: -41%

SMILES: COc1ccc([C@@H]2C([C@@H](O)c3cccc4ccccc34)C(=O)N2c2ccccc2)cc1 (stereo partly shown) [Example 3L]
- % Reduction Serum Cholest. (dose 10 mg/kg): −15%
- % Reduction Cholest. Esters [5]: −21%

SMILES: COc1ccc([C@@H]2C([C@@H](O)c3cccc4ccccc34)C(=O)N2c2ccccc2)cc1 (stereo partly shown) [Example 3M]
- % Reduction Serum Cholest. (dose 10 mg/kg): 0%
- % Reduction Cholest. Esters [5]: −22%

SMILES: COc1ccc([C@@H]2C(CC[C@@H](O)c3ccccc3)C(=O)N2c2ccc(OC)cc2)cc1 (stereo partly shown) [Example 4A]
- change in vivo at 5 mg/kg [1]: -54%
- change in vivo at 5 mg/kg [2]: 0%

SMILES: COc1ccc([C@@H]2C(CC[C@H](O)c3ccccc3)C(=O)N2c2ccc(OC)cc2)cc1 (stereo partly shown) [Example 4B]
- change in vivo at 8 mg/kg [1]: -89%
- change in vivo at 8 mg/kg [2]: -37%

SMILES: COc1ccc([C@H]2[C@H](CC[C@H](O)c3ccccc3)C(=O)N2c2ccc(OC)cc2)cc1 [Example 4D]
- change in vivo at 7 mg/kg [1]: 0%
- change in vivo at 7 mg/kg [2]: 9%

SMILES: COc1ccc(N2C(=O)C(CC[C@@H](O)c3ccccc3)[C@H]2c2ccc(O)cc2)cc1 (stereo partly shown) [Example 4E]
- change in vivo at 3 mg/kg [1]: -46%
- change in vivo at 3 mg/kg [2]: 0%

SMILES: COc1ccc(N2C(=O)C(CC[C@H](O)c3ccccc3)[C@H]2c2ccc(O)cc2)cc1 (stereo partly shown) [Example 4F]
- change in vivo at 3 mg/kg [1]: -95%
- change in vivo at 3 mg/kg [2]: -29%

SMILES: COCOc1ccc(C(O)CCC2C(=O)N(c3ccc(OC)cc3)[C@@H]2c2ccc(OC)cc2)cc1 (stereo partly shown) [Example 5]
- change in vivo at 10 mg/kg [3]: -64%
- change in vivo at 10 mg/kg [4]: 0%

SMILES: O=C1[C@H](CC[C@H](O)c2ccc(F)cc2)[C@@H](c2ccc(OCc3ccccc3)cc2)N1c1ccc(F)cc1 [Example 6A-1]
- % Reduction Serum Cholest. (dose 1 mg/kg): −43%
- % Reduction Cholest. Esters [6]: −93%

SMILES: O=C1C(CC[C@H](O)c2ccc(F)cc2)[C@@H](c2ccc(O)cc2)N1c1ccc(F)cc1 (stereo partly shown) [Example 6A]
- change in vivo at 1 mg/kg [7]: -95%
- change in vivo at 1 mg/kg [8]: -59%

SMILES: O=C1C(CC[C@@H](O)c2ccc(F)cc2)[C@@H](c2ccc(O)cc2)N1c1ccc(F)cc1 (stereo partly shown) [Example 6B]
- change in vivo at 3 mg/kg [1]: -92%
- change in vivo at 3 mg/kg [2]: -40%

SMILES: COc1ccc(N2C(=O)C(CC[C@@H](O)c3ccccc3)[C@H]2c2ccc(OC(C)=O)cc2)cc1 (stereo partly shown) [Example 6C]
- change in vivo at 3 mg/kg [1]: -48%
- change in vivo at 3 mg/kg [2]: 0%

SMILES: COc1ccc(N2C(=O)C(CC[C@H](O)c3ccccc3)[C@H]2c2ccc(OC(C)=O)cc2)cc1 (stereo partly shown) [Example 6D]
- change in vivo at 10 mg/kg [3]: -95%
- change in vivo at 10 mg/kg [4]: -46%

SMILES: COc1ccc([C@@H]2[C@@H](CC[C@@H](OC(C)=O)c3ccccc3)C(=O)N2c2ccc(OC)cc2)cc1 [Example 8A, 1,4(S)-bis(4-methoxyphenyl)-3(R)-(3(R)-acetoxy-3-phenylpropyl)-2-azetidinone]
- change in vivo at 3 mg/kg [1]: -44%
- change in vivo at 3 mg/kg [2]: 0%

SMILES: COc1ccc([C@@H]2[C@@H](CC[C@H](OC(C)=O)c3ccccc3)C(=O)N2c2ccc(OC)cc2)cc1 [Example 8B, 1,4(S)-bis(4-methoxyphenyl)-3(R)-(3(S)-acetoxy-3-phenylpropyl)-2-azetidinone]
- change in vivo at 3 mg/kg [1]: -95%
- change in vivo at 3 mg/kg [2]: -50%

SMILES: CC(=O)Oc1ccc([C@@H]2[C@@H](CC[C@@H](OC(C)=O)c3ccc(F)cc3)C(=O)N2c2ccc(F)cc2)cc1 [Example 8C, 4(S)-(4-acetyloxyphenyl)-3(R)-(3(R)-acetyloxiy-3-(4-fluorophenyl)propyl)-1-(4-fluorophenyl)-2-azetidinone]
- % Reduction Serum Cholest. (dose 1 mg/kg): −14%
- % Reduction Cholest. Esters [6]: −37%

SMILES: CC(=O)Oc1ccc([C@@H]2[C@@H](CC[C@H](OC(C)=O)c3ccc(F)cc3)C(=O)N2c2ccc(F)cc2)cc1 [Example 8D, 4(S)-(4-acetyloxyphenyl)-3(R)-(3(S)-acetyloxy-3-(4-fluorophenyl)propyl)-1-(4-fluorophenyl)-2-azetidinone]
- change in vivo at 1 mg/kg [7]: -98%
- change in vivo at 1 mg/kg [8]: -49%

SMILES: CC(=O)Oc1ccc([C@@H]2C(CC[C@H](OC(C)=O)c3ccc(Cl)cc3)C(=O)N2c2ccc(Cl)cc2)cc1 (stereo partly shown) [Example 8E]
- change in vivo at 3 mg/kg [1]: -66%
- change in vivo at 3 mg/kg [2]: -22%

SMILES: CC(=O)Oc1ccc([C@@H]2C(CC[C@@H](OC(C)=O)c3ccc(Cl)cc3)C(=O)N2c2ccc(Cl)cc2)cc1 (stereo partly shown) [Example 8F]
- change in vivo at 1 mg/kg [7]: -94%
- change in vivo at 1 mg/kg [8]: -43%

SMILES: O=C1[C@@H]([C@H](O)CCc2ccccc2)[C@@H](c2ccc(O)cc2)N1c1ccc(F)cc1 [Example 10]
- change in vivo at 3 mg/kg [1]: -77%
- change in vivo at 3 mg/kg [2]: -26%

— patent USRE42461E1, “Hydroxy-substituted azetidinone compounds useful as hypocholesterolemic agents” (Schering Corporation, priority 1994, dated 2011)
